In patent publication US20150105252A1, “SUBSTITUTED PYRAZOLES AS HERBICIDES” (E I DU PONT DE NEMOURS AND COMPANY, priority 2013, published 2015):

Assays:
radish, wild = experiment: Test D preemergence; format: in vivo, Raphanus raphanistrum; conditions: Preemergence, scale 0 to 100
Outline: (§1)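 Pre: sown in silt loam, sprayed at once. Post: grown in peat-moss/vermiculite mix, sprayed at 1–4 leaves (2–18 cm). Formulation: non-phytotoxic solvent + surfactant. Read-out: visual 0–100 vs controls, 14–21 d.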

speedwell = experiment: Test D preemergence; format: in vivo, Veronica persica; conditions: Preemergence, scale 0 to 100
Outline: as §1

chamomile = experiment: Test D preemergence; format: in vivo, Matricaria inodora; conditions: Preemergence, scale 0 to 100
Outline: as §1

bluegrass [1] = experiment: Test D postemergence; format: in vivo, Poa annua; conditions: scale 0 to 100
Outline: as §1

kochia [2] = experiment: Test D preemergence; format: in vivo, Kochia scoparia; conditions: Preemergence, scale 0 to 100
Outline: as §1

windgrass = experiment: Test D postemergence; format: in vivo, Apera spica-venti; conditions: scale 0 to 100
Outline: as §1

deadnettle = experiment: Test D postemergence; format: in vivo, Lamium amplexicaule; conditions: scale 0 to 100
Outline: as §1

field poppy = experiment: Test D postemergence; format: in vivo, Papaver rhoeas; conditions: scale 0 to 100
Outline: as §1

galium = experiment: Test D postemergence; format: in vivo, Galium aparine; conditions: scale 0 to 100
Outline: as §1

bromegrass, downy [3] = experiment: Test D preemergence; format: in vivo, Bromus tectorum; conditions: Preemergence, scale 0 to 100
Outline: as §1

field violet [4] = experiment: Test D postemergence; format: in vivo, Viola arvensis; conditions: scale 0 to 100
Outline: as §1

chickweed = experiment: Test D postemergence; format: in vivo, Stellaria media; conditions: scale 0 to 100
Outline: as §1

foxtail, green = experiment: Test D preemergence; format: in vivo, Setaria viridis; conditions: Preemergence, scale 0 to 100
Outline: as §1

kochia [5] = experiment: Test D postemergence; format: in vivo, Kochia scoparia; conditions: scale 0 to 100
Outline: as §1

mustard, wild = experiment: Test D preemergence; format: in vivo, Sinapis arvensis; conditions: Preemergence, scale 0 to 100
Outline: as §1

bromegrass, downy [6] = experiment: Test D postemergence; format: in vivo, Bromus tectorum; conditions: scale 0 to 100
Outline: as §1

buckwheat, wild = experiment: Test D postemergence; format: in vivo, Polygonum convolvulus; conditions: scale 0 to 100
Outline: as §1

canarygrass = experiment: Test D postemergence; format: in vivo, Phalaris minor; conditions: scale 0 to 100
Outline: as §1

bluegrass [7] = experiment: Test D preemergence; format: in vivo, Poa annua; conditions: Preemergence, scale 0 to 100
Outline: as §1

field violet [8] = experiment: Test D preemergence; format: in vivo, Viola arvensis; conditions: Preemergence, scale 0 to 100
Outline: as §1

`CCCc1cc(C(=O)NC2CC2)nn1Cc1cc(C(F)(F)F)nn1C` [Compound 202] was tested, and the “Plant response rating, Radish, Wild” value (radish, wild; 62 g ai/ha) was 100, the “Plant response rating, Radish, Wild” value (radish, wild; 125 g ai/ha) was 100 and the “Plant response rating, Radish, Wild” value (radish, wild; 250 g ai/ha) was 100. For the same molecule, the “Plant response rating, Speedwell” value (speedwell; 62 g ai/ha) was 100, the “Plant response rating, Speedwell” value (speedwell; 125 g ai/ha) was 100 and the “Plant response rating, Speedwell” value (speedwell; 250 g ai/ha) was 100. For the same molecule, the “Plant response rating, Chamomile” value (chamomile; 31 g ai/ha) was 5, the “Plant response rating, Chamomile” value (chamomile; 62 g ai/ha) was 100 and the “Plant response rating, Chamomile” value (chamomile; 125 g ai/ha) was 100. The “Plant response rating, Chamomile” value (chamomile; 250 g ai/ha) was 100, the “Bluegrass plant response rating” value (bluegrass [1]; Postemergence, 31 g ai/ha) was 20 and the “Bluegrass plant response rating” value (bluegrass [1]; Postemergence, 125 g ai/ha) was 25. For the same molecule, the “Bluegrass plant response rating” value (bluegrass [1]; Postemergence, 250 g ai/ha) was 35, the “Bluegrass plant response rating” value (bluegrass [1]; postemergence, 62 g ai/ha) was 20 and the “Plant response rating, Kochia” value (kochia [2]; 62 g ai/ha) was 100. For the same molecule, the “Plant response rating, Kochia” value (kochia [2]; 125 g ai/ha) was 100, the “Plant response rating, Kochia” value (kochia [2]; 250 g ai/ha) was 100 and the “Windgrass plant response rating” value (windgrass; Postemergence, 31 g ai/ha) was 15. For the same molecule, the “Windgrass plant response rating” value (windgrass; Postemergence, 125 g ai/ha) was 25, the “Windgrass plant response rating” value (windgrass; Postemergence, 250 g ai/ha) was 35 and the “Windgrass plant response rating” value (windgrass; postemergence, 62 g ai/ha) was 15. The “Deadnettle plant response rating” value (deadnettle; Postemergence, 31 g ai/ha) was 55, the “Deadnettle plant response rating” value (deadnettle; Postemergence, 125 g ai/ha) was 60 and the “Deadnettle plant response rating” value (deadnettle; Postemergence, 250 g ai/ha) was 65. For the same molecule, the “Deadnettle plant response rating” value (deadnettle; postemergence, 62 g ai/ha) was 55, the “Field Poppy plant response rating” value (field poppy; Postemergence, 31 g ai/ha) was 50 and the “Field Poppy plant response rating” value (field poppy; Postemergence, 125 g ai/ha) was 50. The “Field Poppy plant response rating” value (field poppy; Postemergence, 250 g ai/ha) was 75, the “Field Poppy plant response rating” value (field poppy; postemergence, 62 g ai/ha) was 50 and the “Galium plant response rating” value (galium; Postemergence, 31 g ai/ha) was 70. For the same molecule, the “Galium plant response rating” value (galium; Postemergence, 125 g ai/ha) was 70, the “Galium plant response rating” value (galium; Postemergence, 250 g ai/ha) was 75 and the “Galium plant response rating” value (galium; postemergence, 62 g ai/ha) was 70. The “Plant response rating, Bromegrass, Downy” value (bromegrass, downy [3]; 31 g ai/ha) was 25, the “Plant response rating, Bromegrass, Downy” value (bromegrass, downy [3]; 62 g ai/ha) was 35 and the “Plant response rating, Bromegrass, Downy” value (bromegrass, downy [3]; 125 g ai/ha) was 35. For the same molecule, the “Plant response rating, Bromegrass, Downy” value (bromegrass, downy [3]; 250 g ai/ha) was 50, the “Field Violet plant response rating” value (field violet [4]; Postemergence, 31 g ai/ha) was 25 and the “Field Violet plant response rating” value (field violet [4]; Postemergence, 125 g ai/ha) was 45. The “Field Violet plant response rating” value (field violet [4]; Postemergence, 250 g ai/ha) was 50, the “Field Violet plant response rating” value (field violet [4]; postemergence, 62 g ai/ha) was 25 and the “Chickweed plant response rating” value (chickweed; Postemergence, 31 g ai/ha) was 55. For the same molecule, the “Chickweed plant response rating” value (chickweed; Postemergence, 125 g ai/ha) was 45, the “Chickweed plant response rating” value (chickweed; Postemergence, 250 g ai/ha) was 70 and the “Chickweed plant response rating” value (chickweed; postemergence, 62 g ai/ha) was 55. For the same molecule, the “Plant response rating, Foxtail, Green” value (foxtail, green; 62 g ai/ha) was 35, the “Plant response rating, Foxtail, Green” value (foxtail, green; 125 g ai/ha) was 80 and the “Plant response rating, Foxtail, Green” value (foxtail, green; 250 g ai/ha) was 100. For the same molecule, the “Kochia plant response rating” value (kochia [5]; Postemergence, 31 g ai/ha) was 70, the “Kochia plant response rating” value (kochia [5]; Postemergence, 125 g ai/ha) was 75 and the “Kochia plant response rating” value (kochia [5]; Postemergence, 250 g ai/ha) was 85. For the same molecule, the “Kochia plant response rating” value (kochia [5]; postemergence, 62 g ai/ha) was 70, the “Plant response rating, Mustard, Wild” value (mustard, wild; 62 g ai/ha) was 100 and the “Plant response rating, Mustard, Wild” value (mustard, wild; 125 g ai/ha) was 100. For the same molecule, the “Plant response rating, Mustard, Wild” value (mustard, wild; 250 g ai/ha) was 100, the “Bromegrass, Downy plant response rating” value (bromegrass, downy [6]; Postemergence, 31 g ai/ha) was 25 and the “Bromegrass, Downy plant response rating” value (bromegrass, downy [6]; Postemergence, 125 g ai/ha) was 35. The “Bromegrass, Downy plant response rating” value (bromegrass, downy [6]; Postemergence, 250 g ai/ha) was 35, the “Bromegrass, Downy plant response rating” value (bromegrass, downy [6]; postemergence, 62 g ai/ha) was 25 and the “Buckwheat, Wild plant response rating” value (buckwheat, wild; Postemergence, 31 g ai/ha) was 40. The “Buckwheat, Wild plant response rating” value (buckwheat, wild; Postemergence, 125 g ai/ha) was 70, the “Buckwheat, Wild plant response rating” value (buckwheat, wild; Postemergence, 250 g ai/ha) was 90 and the “Buckwheat, Wild plant response rating” value (buckwheat, wild; postemergence, 62 g ai/ha) was 40. The “Canarygrass plant response rating” value (canarygrass; Postemergence, 31 g ai/ha) was 15, the “Canarygrass plant response rating” value (canarygrass; Postemergence, 125 g ai/ha) was 15 and the “Canarygrass plant response rating” value (canarygrass; Postemergence, 250 g ai/ha) was 20. For the same molecule, the “Canarygrass plant response rating” value (canarygrass; postemergence, 62 g ai/ha) was 15, the “Plant response rating, Bluegrass” value (bluegrass [7]; 31 g ai/ha) was 10 and the “Plant response rating, Bluegrass” value (bluegrass [7]; 62 g ai/ha) was 5. For the same molecule, the “Plant response rating, Bluegrass” value (bluegrass [7]; 125 g ai/ha) was 50, the “Plant response rating, Bluegrass” value (bluegrass [7]; 250 g ai/ha) was 80 and the “Plant response rating, Field Violet” value (field violet [8]; 62 g ai/ha) was 25. For the same molecule, the “Plant response rating, Field Violet” value (field violet [8]; 125 g ai/ha) was 100 and the “Plant response rating, Field Violet” value (field violet [8]; 250 g ai/ha) was 100.
